According to patent US20230293535A1, “ERBB/BTK INHIBITORS” (Dizal (Jiangsu) Pharmaceutical Co., Ltd., priority 2018, published 2023):

Assays:
Ri-1 cells = test: BTK (wt) cell proliferation, Ri-1 (CellTiter-Glo, 72 h); type: cell-based; conditions: Ri-1, 72 h, read-out: BTK WT Ri-1 GI50;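 further: viable cells quantified as cellular ATP luminescence, proliferation normalized to a time-zero plate and the DMSO control, compounds tested across a dilution series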
EGFR L858R&T790M = target: T1, EGFR L858R&T790M (Homo sapiens, UniProt P00533, L858R/T790M); test: EGFR L858R and T790M cellular phosphorylation inhibition in NCI-H1975 (MSD); type: cell-based; conditions: NCI-H1975 cells, 4 h compound, p-EGFR(Y1068)/total EGFR; read-out: EGFR L858R and T790M mutation IC50;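 further: phosphorylated and total EGFR detected by electrochemiluminescence, cells exposed to compound in medium containing 1% FBS at 37 °C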
T1 construct: host or cells: NCI-H1975

OCI-LY-10 cells = test: BTK (wt) cell proliferation, OCI-LY-10 (CellTiter-Glo, 72 h); type: cell-based; conditions: Homo sapiens, OCI-Ly10, 72 h, read-out: BTK WT OCI-LY-10 GI50;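 further: viable cells quantified via cellular ATP luminescence, proliferation given as percent of DMSO control after subtracting a duplicate plate read at time of dosing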
in vitro [1] = conditions: both, human, hepatocytes, human hepatocytes Clint (µL/min/10^6cells)
Method: (§1) The protocol for rat/human hepatocytes metabolic stability assay is employed to determine the clearance of the compounds of the present disclosure in vitro.
(§2) Rat hepatocytes in male gender and human hepatocytes in mixed gender were obtained from commercial vendors (e.g., BioreclamationIVT) and stored at -150° C. prior to use. 10 mM stock solutions of tested compounds were prepared in DMSO. Thawing medium and supplement incubation medium (serum-free) were placed in a 37° C. water bath for at least 15 minutes prior to use. Stock solutions were diluted to 100 µM by combining 198 µL acetonitrile and 2 µL of 10 mM stock solution.
(§3) Vials of cryopreserved hepatocytes were removed from storage, ensured that vials remain at cryogenic temperatures. The vials were thawed in a 37° C. water bath with gently shaking. Vials were kept in water bath until all ice crystals had dissolved and were no longer visible. Vials were sprayed with 70% ethanol before being transferred to a biosafety cabinet. And then the contents were poured into the 50 mL thawing medium conical tube. Vials were centrifuged at 100 g for 10 minutes at room temperature.
(§4) Cell viability and density were counted using a Trypan Blue exclusion, and then cells were diluted with serum-free incubation medium to a working cell density of 1 × 10^6 viable cells/ml. […] The inactivated hepatocytes were used to prepare negative samples, which were used to exclude the misleading factor that resulted from instability of chemical itself.
(§5) Aliquots of 247.5 µL hepatocytes were dispensed into each well of a 96-well non-coated plate. The plate was placed in the incubator on an orbital shaker for approximately 10 minutes. Aliquots of 2.5 µL of the 100 µM test compounds were added into respective wells of the non-coated 96-well plate to start the reaction. This assay was performed in duplicate. The plate was incubated in the incubator on an orbital shaker for the designed time points. […] Samples were centrifuges for 20 minutes at 4000 g and aliquots of 100 µL of the supernatants were used for LC-MS/MS analysis for measurement of test compounds
(§6) In vitro hepatocyte clearance was estimated based on determination of elimination half-life (T½) of compounds disappearance from their initial concentrations. Peak area ratios of each compound (test or control) to IS was calculated. Ln (%Control) versus Incubation Time (min) curve was plotted, and the slope of a linear fitting line was calculated.

Ba/F3 EGFR NPH ins cells = test: Cell proliferation, Ba/F3 EGFR NPH ins (CellTiter-Glo, 72 h); type: cell-based; conditions: Ba/F3 EGFR, 72 h, read-out: EGFR Exon20 NPH insertion GI50 (nM);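 further: IL3-independent cells carrying constitutively phosphorylated EGFR, compound dilution series, viable cells quantified by ATP luminescence, growth relative to DMSO wells after subtracting pre-dosing (day 0) baseline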
Ba/F3 EGFR ASV ins cells = test: Cell proliferation, Ba/F3 EGFR ASV ins (CellTiter-Glo, 72 h); type: cell-based; conditions: Ba/F3 EGFR, 72 h, read-out: EGFR Exon20 ASV insertion GI50 (nM);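 further: IL3-independent Ba/F3 cells transduced with EGFR V769_D770insASV, cellular ATP luminescence after compound exposure, growth relative to DMSO control with the day-0 baseline reading subtracted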
WT EGFR cell line A-431 = test: Cell proliferation, WT EGFR A431 (CellTiter-Glo, 72 h); type: cell-based; conditions: Homo sapiens, A-431, 72 h, read-out: EGFR WT A431 GI50 (nM);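 further: proliferation from a luminescent ATP viability signal, expressed as 100 × (treated minus time-zero plate) over (DMSO control minus time-zero plate), cells grown with 10% FBS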
Method: WT or mutant cells were seeded in 384 well plates at appropriate concentrations with corresponding growth media supplemented with 10% FBS, for each experiment, identical plates were prepared in duplicates, and the plates were incubated overnight. On the next day, one of each duplicated plates was dosed with tested compounds at a series of concentrations, and another one of the duplicated plate was analysied for G0 value. The dosed plates were incubate for another 72 h at 37° C. with 5% CO2 and the number of viable cells in each well of the G0 plates or the dosed plates were measured by CellTiter-Glo® Luminescent Cell Viability Assay (Promega). This assay is a luminescent method for determining the number viable cells through measurement of cellular ATP concentration by detection of luciferase activity. Detection reagents (15 µl) was dispensed into per well, and the plates were incubate for 30 min at room temperature. Then, the luminescence in each well was measured using the Envision plate reader (PerkinElmer). The percentage of proliferation was calculated based on the formula: %Proliferation= 100 × (G3 value of sample well-Go value)/(G3 value of DMSO control-Go value).

[2] = target: T2, human Her2 exon 20 insertion mutation YVMA (Homo sapiens, UniProt P04626, INS775YVMA); test: Her2 Exon 20 YVMA insertion cellular phosphorylation inhibition (MSD p-Her2 Y1248/total Her2); type: cell-based; conditions: Her2 YVMAins cells, 4 h compound;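 further: lentivirally transduced NIH-3T3 cells in 1% FBS medium, electrochemiluminescent MSD read-out, graded compound concentrations at 37 °C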
T2 construct: expressed in transfected cells; host or cells: NIH-3T3, lentiviral transduction, puromycin selection

[3] = target: T3, human EGFR exon 20 H773_V774insNPH (Homo sapiens, UniProt P00533, INS773NPH); test: EGFR Exon20 NPH insertion cellular phosphorylation inhibition (MSD pEGFR Y1068/total EGFR); type: cell-based; conditions: Ba/F3 EGFR NPH ins cells, 4 h compound, p-EGFR(Y1068)/total EGFR;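 further: IL3-independent Ba/F3 cells with constitutively phosphorylated EGFR, compound exposure at 37 °C under 5% CO2, electrochemiluminescent MSD measurement of the p-EGFR to total EGFR ratio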
T3 construct: host or cells: Ba/F3

[4] = system: Her2 exon 20 insertion YVMA transduced NIH-3T3 cell line; test: Cell proliferation, Her2 YVMAins NIH-3T3 (CellTiter-Glo, 72 h); type: cell-based; conditions: Mus musculus, NIH3T3, 72 h, read-out: Her2 Exon 20 YVMA insertion GI50 (nM);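 further: viable cells quantified by ATP luminescence, growth over a day-zero baseline plate expressed as percent of DMSO control growth, compound dilution series in 10% FBS medium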
in vitro [5] = conditions: male, rat, hepatocytes, rat hepatocytes Clint (µL/min/10^6cells)
Method: as §1, §2, §3, §4, §5, §6

[6] = system: NCI-H1975 EGFR L858R/T790M cells; test: Cell proliferation, NCI-H1975 EGFR L858R/T790M (CellTiter-Glo, 72 h); type: cell-based; conditions: Homo sapiens, NCI-H1975, 72 h, read-out: EGFR L858R and T790M mutation GI50 (nM);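 further: viable cells quantified by luciferase-based ATP luminescence, proliferation expressed relative to DMSO-treated wells (100%) after subtracting a parallel plate read at the time of dosing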
DB cells = test: BTK (wt) cell proliferation, DB (CellTiter-Glo, 72 h); type: cell-based; conditions: Homo sapiens, DB, read-out: Non-BCR activated DB GI50;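 further: DB cells in 384-well plates given a dilution series of compound, viable cells read by ATP luminescence, growth expressed versus DMSO control after subtracting a time-zero plate reading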
[7] = target: T4, human EGFR exon 20 V769_D770insASV (Homo sapiens, UniProt P00533, INS769ASV); test: EGFR Exon20 ASV insertion cellular phosphorylation inhibition (MSD pEGFR Y1068/total EGFR); type: cell-based; conditions: Ba/F3 EGFR ASV ins cells, 4 h compound, p-EGFR(Y1068)/total EGFR;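 further: electrochemiluminescent readout on an MSD SECTOR Imager, IL3-independent transduced cells in medium with 1% FBS, compound concentration series at 37 °C and 5% CO2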
T4 construct: expressed in transfected cells; host or cells: Ba/F3 (DSMZ ACC-300), lentiviral transduction, puromycin selection, IL3 depletion

TMD-8 cells = test: BTK (wt) cell proliferation, TMD-8 (CellTiter-Glo, 72 h); type: cell-based; conditions: Homo sapiens, TMD8, 72 h, read-out: BTK WT TMD-8 GI50;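 further: viable cells quantified by ATP-based luminescence, proliferation expressed as percent of DMSO control after subtracting a time-zero baseline plate read at dosing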
WT EGFR = target: T5, WT EGFR (Homo sapiens, UniProt P00533); test: WT EGFR cellular phosphorylation inhibition in A-431 (hEGF stimulated, MSD); type: cell-based; conditions: A431 cells, 4 h compound, then 100 ng/ml hEGF 10 min;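 further: electrochemiluminescence read-out of EGFR Tyr1068 phosphorylation expressed as ratio to total EGFR, cells kept in medium with 1% FBS, compounds tested as a concentration series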
T5 construct: host or cells: A-431
T5 sequence (P00533 25-1210): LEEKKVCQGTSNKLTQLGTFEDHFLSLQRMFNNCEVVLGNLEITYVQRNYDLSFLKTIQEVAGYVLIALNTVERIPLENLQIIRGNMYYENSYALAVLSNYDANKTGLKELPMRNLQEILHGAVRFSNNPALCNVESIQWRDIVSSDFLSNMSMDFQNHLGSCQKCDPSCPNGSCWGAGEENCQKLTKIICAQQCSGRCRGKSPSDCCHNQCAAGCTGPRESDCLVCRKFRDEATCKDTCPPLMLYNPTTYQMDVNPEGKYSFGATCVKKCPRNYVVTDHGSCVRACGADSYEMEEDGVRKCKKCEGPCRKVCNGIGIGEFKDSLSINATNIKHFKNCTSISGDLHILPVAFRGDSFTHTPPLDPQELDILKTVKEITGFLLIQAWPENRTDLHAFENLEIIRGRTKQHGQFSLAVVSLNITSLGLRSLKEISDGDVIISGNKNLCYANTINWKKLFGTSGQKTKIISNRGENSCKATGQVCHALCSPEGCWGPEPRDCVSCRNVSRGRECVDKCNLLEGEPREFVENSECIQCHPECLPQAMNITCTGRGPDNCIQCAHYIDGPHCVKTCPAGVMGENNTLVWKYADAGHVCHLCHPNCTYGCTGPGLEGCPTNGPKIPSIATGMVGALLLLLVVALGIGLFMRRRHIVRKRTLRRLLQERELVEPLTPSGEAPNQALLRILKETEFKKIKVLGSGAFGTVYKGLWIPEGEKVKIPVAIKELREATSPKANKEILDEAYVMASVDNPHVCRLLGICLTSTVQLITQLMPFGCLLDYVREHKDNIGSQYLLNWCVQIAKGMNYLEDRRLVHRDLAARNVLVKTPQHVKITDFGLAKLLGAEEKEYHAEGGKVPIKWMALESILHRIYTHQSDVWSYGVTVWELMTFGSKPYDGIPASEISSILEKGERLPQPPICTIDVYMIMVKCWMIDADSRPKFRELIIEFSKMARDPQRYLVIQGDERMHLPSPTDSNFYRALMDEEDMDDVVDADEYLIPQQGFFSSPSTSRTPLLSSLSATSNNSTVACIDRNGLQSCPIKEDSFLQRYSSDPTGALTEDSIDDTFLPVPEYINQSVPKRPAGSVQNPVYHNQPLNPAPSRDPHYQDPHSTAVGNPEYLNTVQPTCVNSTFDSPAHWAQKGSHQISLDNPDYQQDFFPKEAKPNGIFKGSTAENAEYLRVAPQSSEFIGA

T2 sequence (P04626 with tags, fused parts or gaps INS775YVMA): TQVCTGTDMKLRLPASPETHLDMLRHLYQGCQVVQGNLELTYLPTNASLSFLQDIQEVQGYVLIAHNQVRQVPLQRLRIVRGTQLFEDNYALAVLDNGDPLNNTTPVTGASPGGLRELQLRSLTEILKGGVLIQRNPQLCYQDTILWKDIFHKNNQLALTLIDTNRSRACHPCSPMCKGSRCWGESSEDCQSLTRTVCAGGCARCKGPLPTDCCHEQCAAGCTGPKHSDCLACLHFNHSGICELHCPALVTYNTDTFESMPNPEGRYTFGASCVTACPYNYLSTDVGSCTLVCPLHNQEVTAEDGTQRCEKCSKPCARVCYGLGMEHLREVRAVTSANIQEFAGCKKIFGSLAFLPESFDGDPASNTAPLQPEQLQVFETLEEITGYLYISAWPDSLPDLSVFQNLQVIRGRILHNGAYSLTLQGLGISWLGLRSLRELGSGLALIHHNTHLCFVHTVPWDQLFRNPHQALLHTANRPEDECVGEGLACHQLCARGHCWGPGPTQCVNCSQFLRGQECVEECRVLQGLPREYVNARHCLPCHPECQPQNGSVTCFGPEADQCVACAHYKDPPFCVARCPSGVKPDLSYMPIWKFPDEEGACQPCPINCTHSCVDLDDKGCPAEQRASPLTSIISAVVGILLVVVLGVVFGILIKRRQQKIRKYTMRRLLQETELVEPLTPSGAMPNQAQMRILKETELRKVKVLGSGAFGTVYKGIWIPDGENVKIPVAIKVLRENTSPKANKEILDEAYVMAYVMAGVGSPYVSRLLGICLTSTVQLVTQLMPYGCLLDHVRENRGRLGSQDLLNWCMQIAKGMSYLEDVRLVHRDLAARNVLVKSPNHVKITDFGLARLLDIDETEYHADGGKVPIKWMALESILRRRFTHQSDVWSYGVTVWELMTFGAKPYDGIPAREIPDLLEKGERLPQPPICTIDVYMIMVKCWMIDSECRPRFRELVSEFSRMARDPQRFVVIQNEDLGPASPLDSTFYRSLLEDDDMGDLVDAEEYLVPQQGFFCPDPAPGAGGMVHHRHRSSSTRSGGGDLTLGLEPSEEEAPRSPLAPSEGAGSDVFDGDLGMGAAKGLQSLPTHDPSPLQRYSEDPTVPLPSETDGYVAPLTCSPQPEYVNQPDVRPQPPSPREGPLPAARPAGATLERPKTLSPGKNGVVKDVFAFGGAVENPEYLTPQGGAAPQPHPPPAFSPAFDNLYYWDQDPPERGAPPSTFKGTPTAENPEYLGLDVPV
T1 sequence (P00533 25-1210 T790M/L858R): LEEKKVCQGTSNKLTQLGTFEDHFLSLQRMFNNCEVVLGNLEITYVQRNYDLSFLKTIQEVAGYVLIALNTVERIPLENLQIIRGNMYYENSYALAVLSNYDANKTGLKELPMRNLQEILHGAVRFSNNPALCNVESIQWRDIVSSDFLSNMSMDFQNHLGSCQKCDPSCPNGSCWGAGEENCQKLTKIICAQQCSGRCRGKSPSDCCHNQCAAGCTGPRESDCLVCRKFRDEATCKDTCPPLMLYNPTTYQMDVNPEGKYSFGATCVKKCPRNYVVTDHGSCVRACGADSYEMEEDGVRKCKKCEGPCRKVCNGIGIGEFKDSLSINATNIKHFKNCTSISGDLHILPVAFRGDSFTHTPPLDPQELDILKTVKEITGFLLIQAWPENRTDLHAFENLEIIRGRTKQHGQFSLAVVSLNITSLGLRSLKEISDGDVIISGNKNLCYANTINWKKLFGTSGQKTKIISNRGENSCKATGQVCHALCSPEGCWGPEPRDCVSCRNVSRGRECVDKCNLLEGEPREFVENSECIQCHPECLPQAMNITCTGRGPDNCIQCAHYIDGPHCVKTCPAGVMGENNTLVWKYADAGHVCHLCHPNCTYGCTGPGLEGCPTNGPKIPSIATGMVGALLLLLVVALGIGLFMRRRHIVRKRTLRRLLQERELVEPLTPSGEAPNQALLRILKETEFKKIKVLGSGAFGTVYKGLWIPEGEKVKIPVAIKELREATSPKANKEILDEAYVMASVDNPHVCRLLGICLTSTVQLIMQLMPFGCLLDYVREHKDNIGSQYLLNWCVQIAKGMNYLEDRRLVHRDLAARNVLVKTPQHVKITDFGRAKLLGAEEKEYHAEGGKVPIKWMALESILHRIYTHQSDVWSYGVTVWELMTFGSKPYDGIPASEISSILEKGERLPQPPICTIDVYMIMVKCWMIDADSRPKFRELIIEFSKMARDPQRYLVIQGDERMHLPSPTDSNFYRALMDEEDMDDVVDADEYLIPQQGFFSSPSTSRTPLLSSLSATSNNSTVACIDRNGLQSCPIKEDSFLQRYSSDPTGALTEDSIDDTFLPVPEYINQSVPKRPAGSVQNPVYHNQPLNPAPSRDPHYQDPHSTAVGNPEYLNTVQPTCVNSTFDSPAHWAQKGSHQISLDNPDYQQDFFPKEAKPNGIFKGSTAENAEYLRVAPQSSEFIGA
T3 sequence (P00533 with tags, fused parts or gaps INS773NPH): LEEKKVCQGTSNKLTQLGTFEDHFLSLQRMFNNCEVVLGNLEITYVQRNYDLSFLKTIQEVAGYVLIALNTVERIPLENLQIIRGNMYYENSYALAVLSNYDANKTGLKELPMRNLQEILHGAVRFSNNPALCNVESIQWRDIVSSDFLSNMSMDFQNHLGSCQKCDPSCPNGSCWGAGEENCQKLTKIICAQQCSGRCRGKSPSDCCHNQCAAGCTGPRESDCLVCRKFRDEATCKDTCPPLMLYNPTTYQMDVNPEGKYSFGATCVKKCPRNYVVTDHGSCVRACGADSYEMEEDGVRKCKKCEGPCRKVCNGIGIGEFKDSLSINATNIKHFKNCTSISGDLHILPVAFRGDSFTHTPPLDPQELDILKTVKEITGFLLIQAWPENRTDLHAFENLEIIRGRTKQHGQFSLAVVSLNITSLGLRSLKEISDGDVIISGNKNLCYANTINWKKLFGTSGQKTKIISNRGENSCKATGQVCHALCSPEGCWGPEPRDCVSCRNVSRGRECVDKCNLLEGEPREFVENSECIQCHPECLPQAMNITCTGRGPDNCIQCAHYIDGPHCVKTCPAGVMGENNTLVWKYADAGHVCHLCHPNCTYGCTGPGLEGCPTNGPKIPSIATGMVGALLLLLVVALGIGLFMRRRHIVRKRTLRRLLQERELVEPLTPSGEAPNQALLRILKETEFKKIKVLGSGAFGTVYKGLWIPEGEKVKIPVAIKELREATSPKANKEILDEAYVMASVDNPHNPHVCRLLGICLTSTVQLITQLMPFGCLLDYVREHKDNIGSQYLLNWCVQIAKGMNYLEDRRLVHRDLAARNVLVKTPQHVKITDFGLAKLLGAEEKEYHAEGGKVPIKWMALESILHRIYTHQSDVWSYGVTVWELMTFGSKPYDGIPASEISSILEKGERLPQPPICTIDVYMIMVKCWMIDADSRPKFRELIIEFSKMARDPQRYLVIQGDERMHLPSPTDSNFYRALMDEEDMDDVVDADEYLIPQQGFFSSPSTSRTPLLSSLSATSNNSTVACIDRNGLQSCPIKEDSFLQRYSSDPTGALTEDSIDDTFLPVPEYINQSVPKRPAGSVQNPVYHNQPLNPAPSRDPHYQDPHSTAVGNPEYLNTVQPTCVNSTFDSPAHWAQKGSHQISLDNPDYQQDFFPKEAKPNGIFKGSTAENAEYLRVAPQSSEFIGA

C=CC(=O)Nc1cc(Nc2ncnc(Nc3cc(Cl)c(F)cc3C(C)(O)CC)n2)c(OC)cc1N1CC[C@@H](N(C)C)C1 (stereo partly drawn) [Compound 59, N-(5-(4-(5-chloro-4-fluoro-2-(2-hydroxybutan-2-yl)phenylamino)-1,3,5-triazin-2-ylamino)-2-((R)-3-(dimethylamino)pyrrolidin-1-yl)-4-methoxyphenyl) acrylamide]
GI50 (Ri-1 cells): 26.9 nM
IC50 (EGFR L858R&T790M): 0.5 nM
GI50 (OCI-LY-10 cells): 17.1 nM
hepatocyte CLint at 1 µM (in vitro [1]): 3.75 µL/min/1e6 cells
GI50 (Ba/F3 EGFR NPH ins cells): 29.1 nM
GI50 (Ba/F3 EGFR ASV ins cells): 29.8 nM
GI50 (WT EGFR cell line A-431): 10.7 nM
IC50 [2]: 3.5 nM
IC50 [3]: 16.4 nM
GI50 [4]: 62.2 nM
hepatocyte CLint at 1 µM (in vitro [5]): 14.1 µL/min/1e6 cells
GI50 [6]: 2 nM
GI50 (DB cells): > 3000 nM
IC50 [7]: 13.3 nM
GI50 (TMD-8 cells): 4.78 nM
IC50 (WT EGFR): 25.7 nM
